Like-named read-outs stand apart in the source and are kept apart here. Residues, ends and D or L forms follow the SMILES beside them. *: point of attachment. Cbz = O=C(OCc1ccccc1)*
Assays:
HeLa KD ARTS cells = experiment: Induction of apoptosis by ABT-263 in ARTS knocked-down cells; format: cell-based, human; settings: ARTS KD HeLa cells (absence of ARTS)
Protocol: (§1) ABT-263 is a Bcl-2 antagonist targeting the BH3 domain and leading to initiation of apoptosis within two hours after treatment. The effect of ABT-263 was studied in HeLa cells and HeLa cells in which ARTS expression was knocked-down using shRNA method (HeLa KD ARTS). HeLa and HeLa KD ARTS cells were treated with different concentrations of ABT-263 at different incubation time points (0, 16 and 24 Hours). Lysates were separated using SDS-PAGE method. To evaluate apoptosis, Western Blot analysis was performed using antibodies recognizing Cleaved-PARP (C-PARP), Cleaved-casp3 (C-Casp3), Bcl-2, ARTS, XIAP and Actin (FIG. 8A).

HeLa cells = experiment: Induction of apoptosis by ABT-263 (C-PARP, C-Casp3 Western blot); format: cell-based, human
Protocol: as §1

Bcl-2 [1] = experiment: IP with anti ARTS Ab after ABT-263 treatment with or without QVD: binding of ARTS to Bcl-2; format: cell-based, human; settings: in the presence of QVD
Protocol: Co immunoprecipitation was performed as previously described (Gottfried et al., 2004). Briefly, 10 μg of anti-ARTS antibody or 2 μg of anti-Bcl-2 or anti-XIAP antibody were added to the protein lysate and the samples were left rotating overnight at 4° C. On the following day, agarose beads conjugated to protein A/G (Santa Cruz) were added for 4 h. Samples were centrifuged at 4000 rpm, 4° C. for 5 min and washed three times with PBS. Proteins were eluted from beads following 5 min of boiling in sample buffer and separated on 12.5% SDS-PAGE gel, followed by Western blot analysis.
ABT is a known BH3 mimetics antagonist of Bcl-2 that binds the hydrophobic binding groove in Bcl-2 that includes the BH3 domain. […] Addition of QVD was done to examine whether the binding of ARTS to Bcl-2 occurs before initiation of caspase activation. An IP assay using monoclonal mouse anti ARTS Ab followed by Western Blot was performed by using Bcl-2, ARTS and Actin antibodies.

[2] = test system: small cell lung cancer xenographs, acute lymphoblastic leukemia and hematologic tumors; settings: cited from earlier work
Bcl-W = target: T1, Bcl-W (Homo sapiens, UniProt Q92843); settings: cited from earlier work
T1 sequence (Q92843 1-193): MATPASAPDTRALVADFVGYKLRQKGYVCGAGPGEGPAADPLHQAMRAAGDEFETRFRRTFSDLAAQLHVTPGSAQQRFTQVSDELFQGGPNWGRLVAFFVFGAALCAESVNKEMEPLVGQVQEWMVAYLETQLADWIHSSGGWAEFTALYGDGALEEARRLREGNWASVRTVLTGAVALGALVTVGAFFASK

solid tumors = settings: panel of pediatric tumors; cited from earlier work
Bcl-2 [3] = settings: cited from earlier work
[4] = test system: acute lymphocytic leukemia; settings: panel of pediatric tumors; cited from earlier work
Bcl-XL = Bcl-XL (Homo sapiens, UniProt Q07817); settings: cited from earlier work
[5] = test system: tumor types with an over expression of Mcl-1; settings: cited from earlier work
Bcl-2 [6] = experiment: Proteasome inhibition in transfected COS-7 cells, Bcl-2 levels; format: cell-based; settings: COS-7 cells transfected with Bcl-2 or Bcl-2 and ARTS, 6 h
Protocol: For the proteasome inhibition studies the cells were incubated with MG132 (20 μM) for 6 hours.
COS-7 cells transiently transfected with Bcl-2 or co-transfected with Bcl-2 and ARTS constructs were incubated with a potent proteasome inhibitor MG132 for 6 h to evaluate the effect of the ubiquitin-proteasome system (UPS) on Bcl-2 degradation.

Bcl-2 [7] = settings: different cell lines and mouse embryonic fibroblasts (MEFs), Western blot
Bcl-2 [8] = experiment: Over-expression of ARTS in COS-7 cells, Bcl-2 levels by Western blot and densitometry; format: cell-based; settings: COS-7 cells transfected with Bcl-2 or Bcl-2 and ARTS, 16 h
Text: For transient transfections jetPEI™ (Polyplus Transfection) and Transfectol (GeneChoice) reagents were used according to the manufacturers' instructions.
To determine whether ARTS promotes apoptosis by regulating the levels of Bcl-2, the inventors first over-expressed ARTS in COS-7 cells. More specifically, COS-7 cell were transiently transfected with ARTS, Bcl-2 or empty vector or co-transfected with both constructs.

Bcl-2 [9] = experiment: Myc beads pull-down of ARTS and Bcl-2 in co-transfected COS-7 cells; format: binding; settings: COS-7 cells co-transfected with Bcl-2 and ARTS
Protocol: COS-7 cells were co-transfected with different constructs as detailed herein. The cells were lysed in RIPA buffer (150 mM NaCl, 50 mM Tris-HCl (pH 8), 1% NP-40, 0.5% deoxycholate acid containing protease inhibitors (mini Complete, Roche)). The samples were left rotating overnight at 4° C. with the anti-Myc-beads (Santa Cruz). Samples were centrifuged at 4000 rpm, 4° C. for 5 min and washed four times in PBS. Proteins were eluted from beads following 5 min of boiling in sample buffer. Proteins were separate on 12.5% SDS-PAGE gel, followed by Western blot analysis.
The mechanism by which ARTS regulates Bcl-2 levels was further tested using a pull-down assay in COS-7 cells which were co-transfected with Bcl-2 and ARTS expression vectors. Pull-down assays were performed using agarose anti-myc beads followed by Western blot analysis using mouse anti-ARTS and anti-Bcl-2 antibodies.

Bcl-2 [10] = experiment: Functional-structural pull-down assay with anti Bcl2 antibody in transfected HeLa cells; format: binding, human; settings: pull-down with Bcl-2 antibodies
Protocol: HeLa cells were transiently transfected with Full length ARTS plasmid and 128 amino acids N′ terminus deletion of ARTS plasmid, for 24 hrs. The cells were extracted using RIPA-SDS lysis buffer. Immunoprecipitation was done by incubation of lysates overnight with anti Bcl2 antibody (BD), followed by precipitation done with protein A/G beads (Santa Cruz). Western blot analysis was performed using monoclonal anti ARTS antibody directed against its unique C terminus (Sigma).
In order to identify the Bcl-2 binding domain in ARTS, the inventors examined whether deletion of different fragments of ARTS, namely, the N-terminal 128 amino-acid residues may have an effect. Therefore, pull-down experiments were performed in HeLa cells transfected with either the full length ARTS or a deletion mutant thereof.

Sequence of Bcl-XL (Q07817 whole entry): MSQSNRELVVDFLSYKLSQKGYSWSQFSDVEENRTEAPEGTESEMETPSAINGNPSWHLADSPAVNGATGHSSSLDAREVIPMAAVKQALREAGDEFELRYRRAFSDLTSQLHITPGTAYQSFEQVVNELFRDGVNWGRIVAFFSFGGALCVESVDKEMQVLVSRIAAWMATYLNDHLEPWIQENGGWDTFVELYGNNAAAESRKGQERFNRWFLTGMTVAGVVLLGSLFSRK

With CC1(C)CCC(c2ccc(Cl)cc2)=C(CN2CCN(c3ccc(C(=O)NS(=O)(=O)c4ccc(N[C@H](CCN5CCOCC5)CSc5ccccc5)c(S(=O)(=O)C(F)(F)F)c4)cc3)CC2)C1 [ABT-263, 4-[4-[[2-(4-Chlorophenyl)-5,5-dimethyl-1-cyclohexen-1-yl]methyl]-1-piperazinyl]-N-[[4-[[(1R)-3-(4-morpholinyl)-1-[(phenylthio)methyl]propyl]amino]-3-[(trifluoromethyl)sulfonyl]phenyl]sulfonyl]benzamide] the “apoptosis (C-PARP and C-Casp3 levels)” value (HeLa KD ARTS cells) was “not able to induce apoptosis”, the “apoptosis (C-PARP and C-Casp3 levels)” value (HeLa KD ARTS cells; listed as ABT) was “lower apoptosis rates” and the “apoptosis (level of C-PARP and C-Casp3) with increased concentrations” value (HeLa cells) was “increased apoptosis”. The apoptosis (HeLa cells; 25 μM for 24H) was “induction of apoptosis”, the “concentration giving optimal induction of apoptosis” value (HeLa cells; 24 h) was 25 µM and the “binding of ARTS to Bcl-2 after treatment” value (Bcl-2 [1]; 25 μM, 3 and 24 hours) was “significant increase in binding of ARTS to Bcl-2”. For the same molecule, the “inhibition of the binding of ARTS to Bcl-2” value (Bcl-2 [1]) was “fails to inhibit”, the efficacy against tumors [2] was “effective” and the “binding to Bcl-W” value (Bcl-W) was “high affinity”. For the same molecule, the “efficacy as a single agent against solid tumors” value (solid tumors) was “not effective”, the “binding to Bcl-2” value (Bcl-2 [3]) was “high affinity” and the “efficacy against acute lymphocytic leukemia” value [4] was “highly significant”. For the same molecule, the “binding to Bcl-XL” value (Bcl-XL) was “high affinity”.

For CN(C)CC[C@H](CSc1ccccc1)Nc1ccc(S(=O)(=O)NC(=O)c2ccc(N3CCN(Cc4ccccc4-c4ccc(Cl)cc4)CC3)cc2)cc1[N+](=O)[O-] [ABT-737, (R)-4-(4-((4′-chloro-[1,1′-biphenyl]-2-yl)methyl)piperazin-1-yl)-N-((4-((4-(dimethylamino)-1-(phenylthio)butan-2-yl)amino)-3-nitrophenyl)sulfonyl)benzamide], the “binding to Bcl-W” value (Bcl-W) is given as “high affinity”, the “binding to Bcl-2” value (Bcl-2 [3]) is given as “high affinity” and the “effect in tumor types with an over expression of Mcl-1” value [5] is given as “no effect”. For the same molecule, the “binding to Bcl-XL” value (Bcl-XL) was “high affinity”.

In the case of CC(C)C[C@@H](C=O)NC(=O)[C@H](CC(C)C)NC(=O)[C@H](CC(C)C)NC(=O)OCc1ccccc1 [MG132] (Cbz-Leu-Leu-Leu-aldehyde), the “Bcl-2 levels during proteasome inactivation” value (Bcl-2 [6]) is reported as “accumulation of Bcl-2 levels”.

With COc1cc([C@@H]2c3cc4c(cc3[C@@H](O[C@@H]3O[C@@H]5CO[C@@H](C)O[C@H]5[C@H](O)[C@H]3O)[C@H]3COC(=O)[C@H]23)OCO4)cc(OC)c1O [Etoposide] the “Bcl-2 levels upon induction of apoptosis” value (Bcl-2 [7]) was “down regulated”, the “Bcl-2 level on treatment” value (Bcl-2 [8]) was “further reduction of Bcl-2 level” and the “fate of ARTS/Bcl-2 complex upon induction of apoptosis” value (Bcl-2 [9]) was “degraded”.

B1: 128aa N′del ARTS: deletion mutant of ARTS lacking the N′ terminal 128 amino acid residues (protein)
chain: MVAGESGLGKSTLVNSLFLTDLYRDRKLLGAEERIMQTVEITKHAVDIEEKGVRLRLTIVDTPGFGDAVNNTECWKPVAEYIDQQFEQYFRDESGLNRKNIQDNRVHCCLYFISPFGHGYGPSLRLLAPPGAVKGTGQEHQGQGCH
In the case of B1, the “binding to Bcl-2” value (Bcl-2 [10]) is reported as “does not bind to Bcl-2”.
